Measured values: ChEMBL document CHEMBL1141550, “N-Alkylated galanthamine derivatives: Potent acetylcholinesterase inhibitors from Leucojum aestivum” (Bioorg Med Chem Lett, 2008)

Molecular target: Acetylcholinesterase (Electrophorus electricus, UniProt O42275)
Test: Inhibition of electric eel acetylcholinesterase

Chain of Acetylcholinesterase (O42275 whole entry): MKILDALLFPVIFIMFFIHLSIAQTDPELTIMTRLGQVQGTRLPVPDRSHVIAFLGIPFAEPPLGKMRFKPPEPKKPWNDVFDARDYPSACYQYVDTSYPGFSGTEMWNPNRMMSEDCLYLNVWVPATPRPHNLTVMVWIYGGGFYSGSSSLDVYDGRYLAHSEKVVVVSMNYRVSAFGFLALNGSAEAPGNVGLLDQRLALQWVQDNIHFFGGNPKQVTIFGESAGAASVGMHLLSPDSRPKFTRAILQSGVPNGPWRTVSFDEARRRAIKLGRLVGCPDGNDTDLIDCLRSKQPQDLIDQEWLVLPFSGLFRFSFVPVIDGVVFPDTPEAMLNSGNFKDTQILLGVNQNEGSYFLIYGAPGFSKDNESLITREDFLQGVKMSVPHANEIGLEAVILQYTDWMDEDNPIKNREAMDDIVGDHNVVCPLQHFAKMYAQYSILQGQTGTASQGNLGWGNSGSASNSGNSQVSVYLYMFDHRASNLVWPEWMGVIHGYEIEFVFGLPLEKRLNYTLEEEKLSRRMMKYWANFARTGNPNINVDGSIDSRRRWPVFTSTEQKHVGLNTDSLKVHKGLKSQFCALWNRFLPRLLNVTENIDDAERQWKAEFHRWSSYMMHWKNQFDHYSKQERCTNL

SMILES: C=C(C)CN1CC[C@@]23C=C[C@H](O)C[C@@H]2Oc2c(OC)ccc(c23)C1
- IC50: 160 nM

SMILES: C=CCN1CC[C@@]23C=C[C@H](O)C[C@@H]2Oc2c(OC)ccc(c23)C1 [N-ALLYLNORGALANTHAMINE]
- IC50: 180 nM
